Data from patent US20230257396A1, “MACROCYCLES AND THEIR USE” (BLOSSOMHILL THERAPEUTICS, INC., priority 2020, published 2023).

Tests used:
Test in all cases: KINOMEscan kinase binding assay (Eurofins/DiscoveRx), % Ctrl
kinases [1] = target: T1, kinases (Homo sapiens, UniProt P00519, E255K)
T1 construct: purchased Eurofins/DiscoveRx; host or cells: E. coli BL21-derived host (T7 phage display) for most kinases; HEK-293 for the rest
Method in brief: (§1)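 Competition binding, 1 h RT: phage-tagged or HEK-293-expressed DNA-tagged kinase + immobilized ligand + compound. Eluate kinase by qPCR. % Ctrl = (test − positive ctrl)/(negative ctrl − positive ctrl) × 100; lower means stronger binding.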

kinases [2] = target: T2, kinases (Homo sapiens, UniProt P10721, L576P)
T2 construct: purchased Eurofins/DiscoveRx; host or cells: E. coli BL21-derived host (T7 phage display) for most kinases; HEK-293 for the rest
T2 sequence (P10721 26-976 L576P): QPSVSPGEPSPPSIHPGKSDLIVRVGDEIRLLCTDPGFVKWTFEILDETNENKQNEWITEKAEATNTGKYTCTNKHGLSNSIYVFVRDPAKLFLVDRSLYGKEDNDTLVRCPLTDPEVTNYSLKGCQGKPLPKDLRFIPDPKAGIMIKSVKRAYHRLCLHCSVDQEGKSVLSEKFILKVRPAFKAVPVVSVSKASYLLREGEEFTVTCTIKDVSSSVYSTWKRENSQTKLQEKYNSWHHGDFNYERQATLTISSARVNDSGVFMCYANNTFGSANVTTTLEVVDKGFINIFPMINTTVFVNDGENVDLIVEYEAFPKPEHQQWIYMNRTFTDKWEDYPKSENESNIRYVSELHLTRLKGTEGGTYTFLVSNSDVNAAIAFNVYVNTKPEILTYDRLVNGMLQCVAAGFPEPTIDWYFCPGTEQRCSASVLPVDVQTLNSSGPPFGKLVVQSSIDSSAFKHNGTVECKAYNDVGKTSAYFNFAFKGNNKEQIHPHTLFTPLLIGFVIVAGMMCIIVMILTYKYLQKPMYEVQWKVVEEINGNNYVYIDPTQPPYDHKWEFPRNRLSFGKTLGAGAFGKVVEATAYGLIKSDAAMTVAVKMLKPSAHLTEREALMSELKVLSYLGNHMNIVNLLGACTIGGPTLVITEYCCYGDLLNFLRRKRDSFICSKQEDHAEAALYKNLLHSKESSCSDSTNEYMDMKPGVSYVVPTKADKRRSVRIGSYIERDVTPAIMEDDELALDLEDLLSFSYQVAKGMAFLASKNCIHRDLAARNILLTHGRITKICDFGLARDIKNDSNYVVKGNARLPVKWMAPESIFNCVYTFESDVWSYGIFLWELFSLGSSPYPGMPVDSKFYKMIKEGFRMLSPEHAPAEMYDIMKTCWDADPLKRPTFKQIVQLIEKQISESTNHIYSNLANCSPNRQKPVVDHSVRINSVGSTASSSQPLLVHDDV
Method in brief: as §1

kinases [3] = target: T3, kinases (Homo sapiens, UniProt P10721, V559D)
T3 construct: purchased Eurofins/DiscoveRx; host or cells: E. coli BL21-derived host (T7 phage display) for most kinases; HEK-293 for the rest
T3 sequence (P10721 26-976 V559D): as the sequence (P10721 26-976 L576P) above, with V534D, P551L counted along it
Method in brief: as §1

kinases [4] = target: T4, kinases (Homo sapiens, UniProt P36888, D835Y)
T4 construct: purchased Eurofins/DiscoveRx; host or cells: E. coli BL21-derived host (T7 phage display) for most kinases; HEK-293 for the rest
T4 sequence (P36888 27-993 D835Y): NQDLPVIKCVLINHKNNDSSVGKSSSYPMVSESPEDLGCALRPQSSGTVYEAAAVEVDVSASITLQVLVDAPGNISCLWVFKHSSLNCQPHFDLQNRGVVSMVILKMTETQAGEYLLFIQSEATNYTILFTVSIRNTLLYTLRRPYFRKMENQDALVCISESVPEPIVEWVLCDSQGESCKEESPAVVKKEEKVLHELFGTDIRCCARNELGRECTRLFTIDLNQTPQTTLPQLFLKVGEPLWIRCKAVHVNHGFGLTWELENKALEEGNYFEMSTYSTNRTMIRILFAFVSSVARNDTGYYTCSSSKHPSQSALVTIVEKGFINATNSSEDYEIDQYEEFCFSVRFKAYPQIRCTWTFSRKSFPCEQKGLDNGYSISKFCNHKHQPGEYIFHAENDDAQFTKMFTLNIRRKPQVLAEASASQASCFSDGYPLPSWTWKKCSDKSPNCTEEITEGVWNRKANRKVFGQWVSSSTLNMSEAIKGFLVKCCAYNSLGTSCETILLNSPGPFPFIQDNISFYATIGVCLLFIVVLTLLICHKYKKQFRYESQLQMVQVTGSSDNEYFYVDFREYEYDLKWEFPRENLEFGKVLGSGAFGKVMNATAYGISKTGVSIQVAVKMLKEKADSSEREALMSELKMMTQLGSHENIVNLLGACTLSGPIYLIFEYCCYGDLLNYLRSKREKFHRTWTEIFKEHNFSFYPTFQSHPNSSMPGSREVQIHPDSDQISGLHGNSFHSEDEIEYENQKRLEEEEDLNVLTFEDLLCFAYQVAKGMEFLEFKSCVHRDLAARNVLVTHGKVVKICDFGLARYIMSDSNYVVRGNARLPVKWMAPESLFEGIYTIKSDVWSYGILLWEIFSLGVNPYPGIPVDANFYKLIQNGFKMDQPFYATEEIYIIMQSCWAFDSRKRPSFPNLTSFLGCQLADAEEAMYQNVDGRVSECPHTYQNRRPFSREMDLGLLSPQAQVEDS
Method in brief: as §1

kinases [5] = target: T5, kinases (Homo sapiens, UniProt P00519, H396P)
T5 construct: purchased Eurofins/DiscoveRx; host or cells: E. coli BL21-derived host (T7 phage display) for most kinases; HEK-293 for the rest
Method in brief: as §1

kinases [6] = target: T6, kinases (Homo sapiens, UniProt P00533, G719S)
T6 construct: purchased Eurofins/DiscoveRx; host or cells: E. coli BL21-derived host (T7 phage display) for most kinases; HEK-293 for the rest
Method in brief: as §1

kinases [7] = target: T7, kinases (Homo sapiens, UniProt P00533, L858R)
T7 construct: purchased Eurofins/DiscoveRx; host or cells: E. coli BL21-derived host (T7 phage display) for most kinases; HEK-293 for the rest
Method in brief: as §1

kinases [8] = target: T8, kinases (Homo sapiens, UniProt P00519, T315I)
T8 construct: purchased Eurofins/DiscoveRx; host or cells: E. coli BL21-derived host (T7 phage display) for most kinases; HEK-293 for the rest
Method in brief: as §1

kinases [9] = target: T9, kinases (Homo sapiens, UniProt P07949, M918T)
T9 construct: purchased Eurofins/DiscoveRx; host or cells: E. coli BL21-derived host (T7 phage display) for most kinases; HEK-293 for the rest
T9 sequence (P07949 29-1114 M918T): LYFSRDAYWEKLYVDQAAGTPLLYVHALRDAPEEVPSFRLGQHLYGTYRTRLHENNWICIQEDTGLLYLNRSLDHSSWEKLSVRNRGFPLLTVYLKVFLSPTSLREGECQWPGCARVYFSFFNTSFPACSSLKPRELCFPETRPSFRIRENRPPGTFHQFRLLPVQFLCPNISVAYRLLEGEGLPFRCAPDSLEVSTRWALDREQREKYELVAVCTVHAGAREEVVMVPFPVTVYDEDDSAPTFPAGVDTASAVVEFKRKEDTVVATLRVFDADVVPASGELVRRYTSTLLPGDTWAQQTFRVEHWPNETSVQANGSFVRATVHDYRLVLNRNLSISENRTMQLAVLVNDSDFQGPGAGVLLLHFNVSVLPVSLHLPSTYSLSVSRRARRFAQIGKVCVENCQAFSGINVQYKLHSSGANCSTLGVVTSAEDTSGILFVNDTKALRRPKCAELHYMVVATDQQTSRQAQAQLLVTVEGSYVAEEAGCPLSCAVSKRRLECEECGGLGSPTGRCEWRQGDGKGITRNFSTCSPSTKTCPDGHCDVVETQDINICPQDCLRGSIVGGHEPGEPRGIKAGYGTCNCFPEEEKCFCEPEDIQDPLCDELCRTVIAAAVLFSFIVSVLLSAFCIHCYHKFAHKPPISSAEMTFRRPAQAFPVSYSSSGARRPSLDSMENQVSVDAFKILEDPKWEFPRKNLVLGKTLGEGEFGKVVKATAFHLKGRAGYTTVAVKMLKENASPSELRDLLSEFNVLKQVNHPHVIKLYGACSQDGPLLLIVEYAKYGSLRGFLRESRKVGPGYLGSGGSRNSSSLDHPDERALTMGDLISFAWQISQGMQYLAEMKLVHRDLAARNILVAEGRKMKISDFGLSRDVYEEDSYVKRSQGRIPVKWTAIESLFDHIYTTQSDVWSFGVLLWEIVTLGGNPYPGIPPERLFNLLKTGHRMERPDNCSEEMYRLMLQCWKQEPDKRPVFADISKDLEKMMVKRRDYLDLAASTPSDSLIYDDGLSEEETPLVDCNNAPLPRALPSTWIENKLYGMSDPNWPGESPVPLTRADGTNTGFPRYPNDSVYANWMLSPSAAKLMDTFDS
Method in brief: as §1

kinases [10] = target: T10, kinases (Homo sapiens, UniProt P16234)
T10 construct: purchased Eurofins/DiscoveRx; host or cells: E. coli BL21-derived host (T7 phage display) for most kinases; HEK-293 for the rest
T10 sequence (P16234 24-1089): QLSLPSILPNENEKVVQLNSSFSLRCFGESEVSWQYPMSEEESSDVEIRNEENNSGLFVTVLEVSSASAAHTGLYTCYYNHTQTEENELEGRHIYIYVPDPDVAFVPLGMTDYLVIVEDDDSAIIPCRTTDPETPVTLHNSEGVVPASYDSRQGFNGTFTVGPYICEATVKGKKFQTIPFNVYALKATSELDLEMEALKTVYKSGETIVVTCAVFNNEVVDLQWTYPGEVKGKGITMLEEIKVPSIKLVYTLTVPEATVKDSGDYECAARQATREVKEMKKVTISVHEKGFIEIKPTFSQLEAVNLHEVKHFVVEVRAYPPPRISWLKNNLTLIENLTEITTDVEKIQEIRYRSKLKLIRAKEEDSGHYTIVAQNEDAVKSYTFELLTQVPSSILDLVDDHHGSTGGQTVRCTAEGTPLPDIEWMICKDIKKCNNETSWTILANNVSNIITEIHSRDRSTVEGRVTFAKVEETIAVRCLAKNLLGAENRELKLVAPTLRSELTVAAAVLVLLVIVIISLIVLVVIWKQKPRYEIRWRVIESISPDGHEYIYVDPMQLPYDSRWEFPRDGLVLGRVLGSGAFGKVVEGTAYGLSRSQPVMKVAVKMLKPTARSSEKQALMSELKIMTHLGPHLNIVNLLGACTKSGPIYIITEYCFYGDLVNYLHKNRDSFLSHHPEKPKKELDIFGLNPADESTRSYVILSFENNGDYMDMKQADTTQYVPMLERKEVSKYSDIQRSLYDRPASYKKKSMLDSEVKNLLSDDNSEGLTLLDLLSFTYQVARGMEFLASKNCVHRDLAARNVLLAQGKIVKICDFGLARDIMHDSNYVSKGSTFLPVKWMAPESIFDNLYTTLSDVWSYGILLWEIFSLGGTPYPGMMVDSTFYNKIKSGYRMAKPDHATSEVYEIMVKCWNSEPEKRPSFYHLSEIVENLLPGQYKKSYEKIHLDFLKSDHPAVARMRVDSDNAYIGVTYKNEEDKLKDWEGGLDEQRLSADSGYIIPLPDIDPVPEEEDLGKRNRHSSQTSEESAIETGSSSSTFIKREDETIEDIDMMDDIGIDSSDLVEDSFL
Method in brief: as §1

kinases [11] = target: T11, kinases (Homo sapiens, UniProt P10721, D816H)
T11 construct: purchased Eurofins/DiscoveRx; host or cells: E. coli BL21-derived host (T7 phage display) for most kinases; HEK-293 for the rest
T11 sequence (P10721 26-976 D816H): as the sequence (P10721 26-976 L576P) above, with P551L, D791H counted along it
Method in brief: as §1

kinases [12] = target: T12, kinases (Homo sapiens, UniProt P09619)
T12 construct: purchased Eurofins/DiscoveRx; host or cells: E. coli BL21-derived host (T7 phage display) for most kinases; HEK-293 for the rest
T12 sequence (P09619 33-1106): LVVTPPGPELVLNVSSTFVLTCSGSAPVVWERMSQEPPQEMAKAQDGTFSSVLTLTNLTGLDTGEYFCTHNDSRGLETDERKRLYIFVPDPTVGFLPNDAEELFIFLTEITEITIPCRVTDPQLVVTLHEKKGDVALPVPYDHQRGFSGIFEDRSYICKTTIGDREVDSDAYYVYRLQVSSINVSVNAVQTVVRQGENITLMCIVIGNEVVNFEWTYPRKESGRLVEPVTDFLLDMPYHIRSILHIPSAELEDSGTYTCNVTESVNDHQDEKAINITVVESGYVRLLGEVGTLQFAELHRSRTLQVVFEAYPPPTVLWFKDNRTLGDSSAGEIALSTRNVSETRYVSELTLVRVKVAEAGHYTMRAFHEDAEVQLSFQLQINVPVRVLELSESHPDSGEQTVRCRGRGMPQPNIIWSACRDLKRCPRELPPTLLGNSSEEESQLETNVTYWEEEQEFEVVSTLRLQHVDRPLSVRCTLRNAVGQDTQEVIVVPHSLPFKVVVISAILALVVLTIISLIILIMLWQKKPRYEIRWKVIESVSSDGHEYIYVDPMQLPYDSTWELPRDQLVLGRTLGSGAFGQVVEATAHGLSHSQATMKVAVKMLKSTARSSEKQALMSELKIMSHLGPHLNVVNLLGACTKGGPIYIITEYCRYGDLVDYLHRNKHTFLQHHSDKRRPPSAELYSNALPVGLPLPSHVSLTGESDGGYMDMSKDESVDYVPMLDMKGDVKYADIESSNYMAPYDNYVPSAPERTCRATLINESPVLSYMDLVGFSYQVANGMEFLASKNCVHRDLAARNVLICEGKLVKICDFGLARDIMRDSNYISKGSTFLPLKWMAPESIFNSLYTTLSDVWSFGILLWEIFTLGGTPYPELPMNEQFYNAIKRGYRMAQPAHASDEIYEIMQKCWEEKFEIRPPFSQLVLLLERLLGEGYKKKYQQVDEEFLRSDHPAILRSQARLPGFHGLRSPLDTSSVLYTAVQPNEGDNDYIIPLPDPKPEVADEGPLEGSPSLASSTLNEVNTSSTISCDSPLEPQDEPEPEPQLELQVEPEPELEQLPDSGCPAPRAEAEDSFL
Method in brief: as §1

kinases [13] = target: T13, kinases (Homo sapiens, UniProt P00519, F317I)
T13 construct: purchased Eurofins/DiscoveRx; host or cells: E. coli BL21-derived host (T7 phage display) for most kinases; HEK-293 for the rest
Method in brief: as §1

kinases [14] = target: T14, kinases (Homo sapiens, UniProt P07949)
T14 construct: purchased Eurofins/DiscoveRx; host or cells: E. coli BL21-derived host (T7 phage display) for most kinases; HEK-293 for the rest
T14 sequence (P07949 29-1114): as the sequence (P07949 29-1114 M918T) above, with T890M counted along it
Method in brief: as §1

kinases [15] = target: T15, kinases (Homo sapiens, UniProt P00533, DEL752-759)
T15 construct: purchased Eurofins/DiscoveRx; host or cells: E. coli BL21-derived host (T7 phage display) for most kinases; HEK-293 for the rest
Method in brief: as §1

[16] = target ABL1(E255K)-phosphorylated; 1 μM
[17] = target ABL1(H396P)-nonphosphorylated; 1 μM
[18] = target ABL1(H396P)-phosphorylated; 1 μM
[19] = target ABL1(T315I)-nonphosphorylated; 1 μM
[20] = target ABL1(T315I)-phosphorylated; 1 μM
[21] = target ABL1(F317I)-nonphosphorylated; 1 μM
[22] = target ABL1(F317I)-phosphorylated; 1 μM
[23] = target EGFR(S752-I759del); 1 μM

Structure (SMILES) | % Ctrl, ABL1(E255K)-phosphorylated (kinases [1]; [16]) | % Ctrl, KIT(L576P) (kinases [2]; target KIT(L576P); 1 μM) | % Ctrl, KIT(V559D) (kinases [3]; target KIT(V559D); 1 μM) | % Ctrl, FLT3(D835Y) (kinases [4]; target FLT3(D835Y); 1 μM) | % Ctrl, ABL1(H396P)-nonphosphorylated (kinases [5]; [17]) | % Ctrl, ABL1(H396P)-phosphorylated (kinases [5]; [18]) | % Ctrl, EGFR(G719S) (kinases [6]; target EGFR(G719S); 1 μM) | % Ctrl, EGFR(L858R) (kinases [7]; target EGFR(L858R); 1 μM) | % Ctrl, ABL1(T315I)-nonphosphorylated (kinases [8]; [19]) | % Ctrl, ABL1(T315I)-phosphorylated (kinases [8]; [20]) | % Ctrl, RET(M918T) (kinases [9]; target RET(M918T); 1 μM) | % Ctrl, PDGFRA (kinases [10]; target PDGFRA; 1 μM) | % Ctrl, KIT(D816H) (kinases [11]; target KIT(D816H); 1 μM) | % Ctrl, PDGFRB (kinases [12]; target PDGFRB; 1 μM) | % Ctrl, ABL1(F317I)-nonphosphorylated (kinases [13]; [21]) | % Ctrl, ABL1(F317I)-phosphorylated (kinases [13]; [22]) | % Ctrl, RET (kinases [14]; target RET; 1 μM) | % Ctrl, EGFR(S752-I759del) (kinases [15]; [23]) | other results
Cc1nn(C)c2c1-c1ccc3c(c1)/C(=C/c1[nH]ccc1C(=O)N(C)CCCO2)C(=O)N3 [Ex. 150, [3a(4)Z]-9,14,16-trimethyl-10,11,13,14-tetrahydro-2H-1,17-(ethanediylidene)pyrazolo[4,3-m]dipyrrolo[3,2-f:3′,4′-i][1,4]oxazacyclopentadecine-3,8(5H,9H)-dione] | 95 % Ctrl | 94 % Ctrl | 88 % Ctrl | 67 % Ctrl | 100 % Ctrl | 100 % Ctrl | 8 % Ctrl | 77 % Ctrl | 93 % Ctrl | 83 % Ctrl | 90 % Ctrl | 92 % Ctrl | 87 % Ctrl | 96 % Ctrl | 95 % Ctrl | 88 % Ctrl | 93 % Ctrl | 100 % Ctrl | 
Cc1cc2c([nH]1)/C=C1\C(=O)Nc3ccc(cc31)-c1c(C)nn(C)c1COCCN(C)C2=O [Ex. 146, [3a(4)Z]-6,9,14,16-tetramethyl-10,11,13,14-tetrahydro-2H-1,17-(ethanediylidene)pyrazolo[4,3-m]dipyrrolo[3,2-f:3′,4′-i][1,4]oxazacyclopentadecine-3,8(5H,9H)-dione] | 57 % Ctrl | 90 % Ctrl | 75 % Ctrl | 22 % Ctrl | 50 % Ctrl | 80 % Ctrl | 84 % Ctrl | 88 % Ctrl | 64 % Ctrl | 34 % Ctrl | 27 % Ctrl | 100 % Ctrl | 100 % Ctrl | 96 % Ctrl | 100 % Ctrl | 100 % Ctrl | 45 % Ctrl | 83 % Ctrl | 
Cc1cc2c([nH]1)/C=C1\C(=O)Nc3ccc(cc31)-c1c(noc1C(C)C)COCCN(C)C2=O [Ex. 161, [3a(4)Z]-9-methyl-16-(propan-2-yl)-10,11-dihydro-2H,13H-1,17-(ethanediylidene)[1,2]oxazolo[4,3-m]dipyrrolo[3,2-f:3′,4′-i][1,4]oxazacyclopentadecine-3,8(5H,9H)-dione] |  |  |  |  |  |  |  |  |  |  |  |  |  |  |  |  |  |  | % Ctrl, ABL1(E255K)-phosphorylated (kinases [1]; 1 μM; target ABL1(E255K)-phosphorylated): 86 % Ctrl; % Ctrl, KIT(L576P) (kinases [2]; 1 μM; target KIT(L576P)): 100 % Ctrl; % Ctrl, KIT(V559D) (kinases [3]; 1 μM; target KIT(V559D)): 92 % Ctrl; % Ctrl, FLT3(D835Y) (kinases [4]; 1 μM; target FLT3(D835Y)): 36 % Ctrl; % Ctrl, ABL1(H396P)-nonphosphorylated (kinases [5]; 1 μM; target ABL1(H396P)-nonphosphorylated): 91 % Ctrl; % Ctrl, ABL1(H396P)-phosphorylated (kinases [5]; 1 μM; target ABL1(H396P)-phosphorylated): 100 % Ctrl; % Ctrl, EGFR(G719S) (kinases [6]; 1 μM; target EGFR(G719S)): 58 % Ctrl; % Ctrl, EGFR(L858R) (kinases [7]; 1 μM; target EGFR(L858R)): 100 % Ctrl; % Ctrl, ABL1(T315I)-nonphosphorylated (kinases [8]; 1 μM; target ABL1(T315I)-nonphosphorylated): 90 % Ctrl; % Ctrl, ABL1(T315I)-phosphorylated (kinases [8]; 1 μM; target ABL1(T315I)-phosphorylated): 85 % Ctrl; % Ctrl, RET(M918T) (kinases [9]; 1 μM; target RET(M918T)): 92 % Ctrl; % Ctrl, PDGFRA (kinases [10]; 1 μM; target PDGFRA): 100 % Ctrl; % Ctrl, KIT(D816H) (kinases [11]; 1 μM; target KIT(D816H)): 100 % Ctrl; % Ctrl, PDGFRB (kinases [12]; 1 μM; target PDGFRB): 98 % Ctrl; % Ctrl, ABL1(F317I)-nonphosphorylated (kinases [13]; 1 μM; target ABL1(F317I)-nonphosphorylated): 100 % Ctrl; % Ctrl, ABL1(F317I)-phosphorylated (kinases [13]; 1 μM; target ABL1(F317I)-phosphorylated): 91 % Ctrl; % Ctrl, RET (kinases [14]; 1 μM; target RET): 97 % Ctrl; % Ctrl, EGFR(S752-I759del) (kinases [15]; 1 μM; target EGFR(S752-I759del)): 81 % Ctrl
